Test results as given in patent publication US20240336567A1, “PESTICIDAL AND HERBICIDAL COMPOUNDS AND METHODS OF USE THEREOF” (AG Plenus Ltd, priority 2021, published 2024).

What was measured:
[1] = tested on: MATCA; test: In-planta LTP post-emergence, visual phenotype; assay type: in vivo, Matricaria chamomilla; conditions: dicot
Description: A basic panel of eight weed species (Table 3) sowed in 4×4×7 cm plastic pots containing a garden mix (klasmann). Each specie was sowed in a separate pot. In each pot, 10-15 seeds were sowed according to the specie viability. Timing of application determined at a 1-2 true leaf stage. The plants grew for 30 days in a controlled greenhouse (26±2° C. day, 20±2° C. night). Hood irrigation (tap water+Shefer 5:3:8 8 mM) was given at a 50% water content by weight. Two days before application, the tested plants thinned down to three plants per pot. Compounds were soluble in water (DDW), and commercial herbicide control was soluble in formulation B (Table 4). […] Plants were evaluated at 3 time points (4, 8, 12 days after application (DAA)). At each time point, visual phenotyping was recorded using a scale of 0-6 (0: no visible effect, 6: maximum effect). […]
Post-emergence advanced dose response experiment included 4 species: SETVI, ECHCO, AMAPA, ABUTH (Tables 3, 5). […] Plants were evaluated at 4 time points (6, 12, 18 and 26 DAA). At each time point, visual phenotyping was recorded using a scale of 0-6 (0: no visible effect, 6: maximum effect). […]
Post-emergence advanced wide panel experiment included 24 weed species (Table 5). […] Visual phenotyping was recorded at 4, 11, 17 and 20 DAA using a scale of 0-6 (0: no visible effect, 6: maximum effect). […]

[2] = in vitro thermal shift (binding of compound to the target); conditions: thermal shift caused by binding of the compound to the (unnamed) target
[3] = tested on: POAAN; test: In-planta LTP pre-emergence, visual phenotype; assay type: in vivo, Poa annua; conditions: monocot
Description: (§1) A basic panel of 8 weed species (Table 3) were sowed in 4×4×7 cm plastic pots containing inert sand (Sweet sand), intensively washed using osmosis water. Each specie was sowed in a separate pot. In each pot 10-15 seeds were sowed according to the specie viability. Sowing was performed one day before application. The plants were grown for 21 days in a controlled greenhouse (26±2° C. day 20±2° C. night). Hood irrigation (tap water+Shefer 5:3:8 8 mM) was given at a 50% water content by weight. Compounds were soluble in water (DDW), and commercial herbicide control was soluble in formulation B (Table 4). Application was conducted with an industrial sprayer (TeeJet 6502E nozzle) at a rate of 2 kg/ha and spray volume of […]. Pre-emergence advanced dose response experiment application was conducted at six rates between 1-0.0312 kg/ha and spray volume of […]. Percentage of emergence was evaluated at 15 DAA. Visual phenotyping was recorded using a scale of 0-6 (0: no visible effect, 6: maximum effect) at 18 DAA. All experiments included an untreated control, a solvent control and a positive control (commercial herbicide A.I.). Statistical analysis for visual phenotyping determined by a median value of ≥3.5 and Fisher test (pval≤0.05). Statistical analysis for plant emergence determined by % emergence ≥50 and T test (pval≤0.05), as well as Wilcox test (pval≤0.05).

[4] = tested on: SETVI; test: In-planta LTP pre-emergence, visual phenotype; assay type: in vivo, Setaria viridis; conditions: Setaria viridis, 432 h, monocot, read-out: IG Inhibited growth (% effect)
Description: as §1

[5] = tested on: AMAPA; test: In-planta LTP pre-emergence, visual phenotype; assay type: in vivo, Amaranthus palmeri; conditions: Amaranthus palmeri, 432 h, dicot, read-out: IG Inhibited growth (% effect)
Description: as §1

[6] = tested on: LOLPE; test: In-planta LTP pre-emergence, visual phenotype; assay type: in vivo, Lolium perenne; conditions: monocot
Description: as §1

[7] = tested on: Eragrostis teff; test: HTPS - Monocot - Pre-emergence; assay type: in vivo; conditions: N/A: not active
Description: (§2) Arabidopsis thaliana seeds were sown in 96 well plates filled with irrigated Sweet sand (10%>clay) that is washed from salts and minerals using tap water. 5-10 seeds were sown in the center of each well. 7-8 days post sowing, at 2 true leaves stage, thinning out was performed to ensure that compound application is done on a single plant per well. The plates were placed in a controlled greenhouse in a random order inside a bath which allows flooding irrigation with tap water supplemented with a fertilizer. Applied compounds were dissolved into a final solution of 50% acetone, 49.9% DDW, 0.1% tween-20. A 96 well plate was used as a stock plate for preparing application solutions for 8 repeats. Each row contained different concentrations per chemical. Maximal concentration for application was 1.5 Kg/Ha and dilution factor is 2.5. Chemical application was performed one day after thinning out in a chemical hood. 5 μL applied on first two true leaves in each well using 12 channel pipettes. Data collection: RGB (red, green, blue) data for green area per well was documented using camera. Data is collected at a few time points during the experiment: one day after thinning and before chemical application, two-, six- or nine-days post application. During the last two documentations, visual phenotyping was performed. Data analysis: Given RGB results and visual phenotype scores, a student t-test conducted to compare between treatment and control performance for continuous data (RGB) and Fisher exact test to analyze the non-continuous data (phenotypic scores). Dose-Response curves are generated for each treatment to infer ED50 and max. inhibition parameters, using treatment's log concentration range as the […] variable and normalized green area. These experiments are conducted similarly except that either Arabidopsis thaliana or Eragrostis teff seeds were sowed (5-10 or 5-7, respectively), plant thinning out was not performed, compound dissolved into a final solution of 50% acetone, 49.9% DDW, compound application was done at 30 μL volume per well directly on sowed soil before plant emergence and data was collected 10 or 7 days after chemical application on dicot or monocot plants, respectively. Plate imaging performed at 11 and 18 DAA. RGB data for green area per well was documented and used to extract % inhibition. Dose-Response curves were built for each treatment to infer ED50, ED75 and ED90 parameters, using treatment's log concentration range as the independent variable and normalized green area as the dependent variable. Treatments were compared to controls performance given RGB results and using student's t-test (p-val≤0.05).

[8] = tested on: Arabidopsis thaliana; test: HTPS (high throughput on soil) - Dicot - Post-emergence; assay type: in vivo; conditions: N/A: not active
Description: as §2, with “area.” for “area. These experiments are conducted similarly except that either Arabidopsis thaliana or Eragrostis teff seeds were sowed (5-10 or 5-7, respectively), plant thinning out was not performed, compound dissolved into a final solution of 50% acetone, 49.9% DDW, compound application was done at 30 μL volume per well directly on sowed soil before plant emergence and data was collected 10 or 7 days after chemical application on dicot or monocot plants, respectively.”

NCCOc1ccc(F)c(C(=O)O)c1 [Compound 129]
LOD Lodging (% effect) [1]: LOD^3 (40) % | in vitro Thermal Shift [2]: 9 °C | pest or weed control at 2000 g/ha ([3]; Poa annua, 432 h, read-out: IG Inhibited growth (% effect)): 80% | DE Disturbed emergence (% effect) [3]: DE (80) % | pest or weed control at 2000 g/ha [4]: 40% | pest or weed control at 2000 g/ha [5]: 40% | IG Inhibited growth (% effect) [6]: IG (40) % | HTPS - Monocot - Pre ED50 [7]: 550 g/ha | Emax ([7]; read-out: HTPS - Monocot - Pre Max effect): 86% | Emax ([8]; read-out: HTPS - Dicot - Post Max effect): 81% | HTPS - Dicot - Post ED50 ([8]; from normalized green area): 45 g/ha
